# From EP0004590A1, “Penicillin and cephalosporin derivatives, processes for their preparation and their applications” (BAYER AG, priority 1978, dated 1979)
# Key:
# E. coli Neumann = assay: Minimum inhibitory concentration (MHK); assay type: cell-based
# Serratia 16 001 = assay: Minimum inhibitory concentration (MHK); assay type: cell-based
# Klebsiella 6097 = assay: Minimum inhibitory concentration (MHK); assay type: cell-based
# Proteus rettg. = assay: Minimum inhibitory concentration (MHK); assay type: cell-based
# Provid. 12012 = assay: Minimum inhibitory concentration (MHK); assay type: cell-based
# E. coli C 165 = assay: Minimum inhibitory concentration (MHK); assay type: cell-based
# Prot. vulg. 9023 = assay: Minimum inhibitory concentration (MHK); assay type: cell-based
# E.coli 183/58 = assay: Minimum inhibitory concentration (MHK); assay type: cell-based
# Klebs. 63 = assay: Minimum inhibitory concentration (MHK); assay type: cell-based
# Escherichia coli Neumann = assay: Animal test with the white mouse, intraperitoneal infection, ED50 after 24 hours; assay type: in vivo, weiße Maus; conditions: sc; white mice strain CF1 infected intraperitoneally with Escherichia coli Neumann; subcutaneous; therapy 30 and 90 minutes after infection; dose at which 50 % of infected animals survive after 24 hours; read-out: ED50 nach 24 Stunden
# Excerpt: Aus der folgenden Tabelle 1 geht die Wirkung einer der erfindungsgemäßen Verbindungen gegen eine Reihe von Bakterien im Tierversuch mit der weißen Maus hervor. Die weißen Mäuse vom Stamm CF1 wurden intraperitoneal mit der jeweils angegebenen Bakterienart infiziert.
# Therapie: zweimalig : 30 und 90 Minuten nach der Infektion. Die ED50 ist die Dosis, bei der 50 % der infizierten Tiere nach 24 Stunden nocht überleben.
# Psdm. F 41 = assay: Minimum inhibitory concentration (MHK); assay type: cell-based
# E. coli 4322 = assay: Minimum inhibitory concentration (MHK); assay type: cell-based
structure (smiles),measurement,setting,value
CN1C(=O)CCN(C(=O)N[C@@H](C(=O)N[C@@H]2C(=O)N3[C@@H]2SC(C)(C)[C@@H]3C(=O)O)c2ccccc2)C1=O [Beispiel 1],Wirksamkeit (MHK in E/ml),E. coli Neumann,4 E/ml
CN1C(=O)CCN(C(=O)N[C@@H](C(=O)N[C@@H]2C(=O)N3[C@@H]2SC(C)(C)[C@@H]3C(=O)O)c2ccc(O)cc2)C1=O [Beispiel 2],Wirksamkeit (MHK in E/ml),Serratia 16 001,16 E/ml
CC(=O)OCC1=C(C(=O)O)N2C(=O)[C@@H](NC(=O)[C@H](NC(=O)N3CCC(=O)N(C)C3=O)c3ccccc3)[C@H]2SC1 [Beispiel 3],Wirksamkeit (MHK in E/ml),E. coli Neumann,8-16 E/ml
CCN1C(=O)CCN(C(=O)N[C@@H](C(=O)N[C@@H]2C(=O)N3[C@@H]2SC(C)(C)[C@@H]3C(=O)O)c2ccccc2)C1=O [Beispiel 4],Wirksamkeit (MHK in E/ml),E. coli Neumann,4 E/ml
same,Wirksamkeit (MHK in E/ml),Klebsiella 6097,16 E/ml
same,Wirksamkeit (MHK in E/ml),Proteus rettg.,16 E/ml
same,Wirksamkeit (MHK in E/ml),Provid. 12012,16 E/ml
CCN1C(=O)CCN(C(=O)N[C@@H](C(=O)N[C@@H]2C(=O)N3[C@@H]2SC(C)(C)[C@@H]3C(=O)O)c2ccc(O)cc2)C1=O [Beispiel 5],Wirksamkeit (MHK in E/ml),E. coli C 165,16 E/ml
same,Wirksamkeit (MHK in E/ml),Prot. vulg. 9023,16 E/ml
CCCN1C(=O)CCN(C(=O)N[C@@H](C(=O)N[C@@H]2C(=O)N3[C@@H]2SC(C)(C)[C@@H]3C(=O)O)c2ccccc2)C1=O [Beispiel 6],Wirksamkeit (MHK in E/ml),Klebsiella 6097,16 E/ml
same,Wirksamkeit (MHK in E/ml),E.coli 183/58,4 E/ml
CCCN1C(=O)CCN(C(=O)N[C@@H](C(=O)N[C@@H]2C(=O)N3C(C(=O)O)=C(COC(C)=O)CS[C@H]23)c2ccccc2)C1=O [Beispiel 8],Wirksamkeit (MHK in E/ml),E. coli Neumann,4 E/ml
same,Wirksamkeit (MHK in E/ml),Prot. vulg. 9023,8 - 16 E/ml
CC1(C)S[C@@H]2[C@H](NC(=O)[C@H](NC(=O)N3CCC(=O)N(C4CC4)C3=O)c3ccccc3)C(=O)N2[C@H]1C(=O)O [Beispiel 9],Wirksamkeit (MHK in E/ml),E. coli Neumann,4 E/ml
same,Wirksamkeit (MHK in E/ml),Serratia 16 001,16 E/ml
same,Wirksamkeit (MHK in E/ml),Klebs. 63,8 - 16 E/ml
same,ED50,Escherichia coli Neumann,300 mg/kg
CC1(C)S[C@@H]2[C@H](NC(=O)[C@H](NC(=O)N3CCC(=O)N(C4CC4)C3=O)c3ccc(O)cc3)C(=O)N2[C@H]1C(=O)O [Beispiel 10],Wirksamkeit (MHK in E/ml),Psdm. F 41,64 E/ml
same,Wirksamkeit (MHK in E/ml),E. coli 4322,16 E/ml
CC(=O)OCC1=C(C(=O)O)N2C(=O)[C@@H](NC(=O)[C@H](NC(=O)N3CCC(=O)N(C4CC4)C3=O)c3ccccc3)[C@H]2SC1 [Beispiel 11],Wirksamkeit (MHK in E/ml),E.coli 183/58,16 E/ml
